Source: patent publication US5196446A (priority 1991, dated 1993)

Legend:
[1] = target: T1, EGF receptor tyrosine kinase (Homo sapiens, UniProt P00533); type: biochemical; details: for IC50: read-out: IC50 (concentration of inhibitor required to inhibit 50% of polyGAT phosphorylation)
T1 construct: WGA-purified EGF receptor from A431 cells; endogenous in cells; host or cells: A431 cells (solubilized, receptor enriched on WGA-agarose)

[2] = target: T2, EGF receptor (Homo sapiens, UniProt P00533); details: read-out: Km for ATP in autophosphorylation; 15° C.; 10-s assay
Procedure: ATP and EGF Dependence of Autophosphorylation
With use of the 10-s assay protocol, the EGF concentration dependence of EGFRK autophosphorylation is determined.

[3] = target: T2, EGF receptor; assay: Inhibition of EGFR autophosphorylation (A431 cell lysate, EGF stimulation); type: biochemical; design: EGF receptor in membranes of A431 cells; host or cells: membranes of A431 cells
Procedure: Inhibition of EGFR Autophosphorylation
A431 cells were grown to confluence on human fibronectin coated tissue culture dishes. After washing 2 times with ice-cold PBS, cells were lysed by the addition of 500 μl/dish of lysis buffer (50 mmol Hepes, pH 7.5, 150 mmol NaCl, 1.5 mmol Mg Cl2, 1 mmol EGTA, 10% glycerol, 1% triton X-100, 1 mmol PMSF, 1 mg/ml aprotinin, I mg/ml leupeptin) and incubating 5 minutes at 4° C. After EGF stimulation ([…] 10 minutes at 37° C.) immunoprecipitation was performed with anti EGF-R (Ab 108) and the autophosphorylation reaction (50 μl aliquots, 3 μCi [γ-^32 P]ATP) sample was carried out in the presence of 2 or 10 μM of compound, for 2 minutes at 4° C. The reaction was stopped by adding hot electrophoresis sample buffer. SDS-PAGE analysis (7.5% els) was followed by autoradiography and the reaction was quantitated by densitometry scanning of the x-ray films. In order to test the compounds for selective inhibition, the procedure is repeated using PDGF stimulation in place of EGF stimulation.

[4] = test system: cyclic adenosine 3',5'-monophosphate (cAMP)-dependent protein kinase; details: in words; compared with EGF receptor autophosphorylation; cited from earlier work
[5] = target: T2, EGF receptor; design: EGF receptor in membranes of A431 cells; host or cells: membranes of A431 cells; details: cited from earlier work
[6] = test system: other protein kinases; details: PTK inhibitors which compete with ATP; cited from earlier work
[7] = as a result of inhibiting other protein kinases; cited from earlier work

Nc1ncnc2c1ncn2[C@@H]1O[C@H](COP(=O)(O)OP(=O)(O)OP(=O)(O)O)[C@@H](O)[C@H]1O [ATP, adenosine triphosphate]
Km ([1]; read-out: Km for ATP in the poly(GAT) assay): 2.9 µM
Km [2]: 7.2 µM

N#CC(C#N)=Cc1c[nH]cn1 [Example 3, 4-Imidazolidene malononitrile]
IC50 [1]: 2.6 mM

N#CC(C#N)=Cc1ccc2[nH]ccc2c1 [Example 5, 5-Indolidene malononitrile]
IC50 [1]: 2.2 mM

N#CC(=Cc1ccc2c(c1)OCO2)c1ccccn1 [Example 8, 2-(2-pyridyl)-3-[3,4-(methylenedioxy)phenyl]-2-propenenitrile]
IC50 [3]: 0.001 mM

O=CN/C=C/c1cc(O)ccc1O [erbstatin]
concentration required to inhibit cAMP-dependent protein kinase [4]: much higher concentrations
concentration required to inhibit EGF receptor autophosphorylation ([5]; in words, compared with cAMP-dependent protein kinase): Low concentrations
inhibition of EGF receptor autophosphorylation ([5]; membranes of A431 cells): inhibits the autophosphorylation of the EGF receptor

O=c1c(-c2ccc(O)cc2)coc2cc(O)cc(O)c12 [genistein]
inhibition of other protein kinases [6]: inhibit other protein kinases
cytotoxicity [7]: highly cytotoxic

O=c1c(O)c(-c2ccc(O)c(O)c2)oc2cc(O)cc(O)c12 [quercetin]
inhibition of other protein kinases [6]: inhibit other protein kinases
cytotoxicity [7]: highly cytotoxic
